Data taken from publication PMC8709388, “In Search of Small Molecules That Selectively Inhibit MBOAT4” (Molecules, 2021).
Where a SMILES comes first, the peptide text is derived from it. Where no end group is shown, it is not given here. [ ]: non-standard residue; d: D form. The star is where a group is joined. Tle = CC(C)(C)[C@H](N)C(=O)O; Octanoyl = CCCCCCCC(=O)*; Dap = NC[C@H](N)C(=O)O; Sar = CNCC(=O)O

Assays:
[1] = test system: GOAT; settings: cited from earlier work
[2] = target: T1, mouse GOAT (Mus musculus, UniProt P0C7A3); test: Acyltransferase assay: inhibition of proghrelin octanoylation by GOAT in sf9 membrane fractions; type: biochemical; settings: for GOAT inhibition in vitro (in words): membrane fractions; for IC50: read-out: IC50 (GOAT, membrane fraction, in-house)
T1 construct: made in house; host or cells: sf9 insect cells (baculovirus, pFastBac1-mouseGOAT); total membrane fraction, not purified
T1 sequence (P0C7A3 1-435): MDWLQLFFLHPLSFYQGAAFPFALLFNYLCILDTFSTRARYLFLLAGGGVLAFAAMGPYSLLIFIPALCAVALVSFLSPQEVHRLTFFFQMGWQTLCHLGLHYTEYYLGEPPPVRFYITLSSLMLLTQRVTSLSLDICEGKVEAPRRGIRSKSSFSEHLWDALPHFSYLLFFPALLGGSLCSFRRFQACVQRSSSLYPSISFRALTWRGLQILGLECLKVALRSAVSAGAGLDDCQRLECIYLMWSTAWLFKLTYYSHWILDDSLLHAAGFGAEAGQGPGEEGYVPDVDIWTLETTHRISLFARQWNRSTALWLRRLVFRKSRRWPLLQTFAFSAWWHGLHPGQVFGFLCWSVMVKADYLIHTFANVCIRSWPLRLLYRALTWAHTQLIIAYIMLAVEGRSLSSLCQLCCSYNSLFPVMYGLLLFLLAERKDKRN
Protocol: pFastBac1-mouseGOAT and pGEX-GST-proGhrelin8His plasmid encoding for mouse proghrelin, fused to GST with TEV cleavage site to release proghrelin moiety, was a kind gift from the Brown and Goldstein laboratory. The BL21Gold E. coli chemically competent cells were transformed with the pGEX-GST-proGhrelin8His plasmid and selected on agar plates with ampicillin. A few colonies were used to inoculate 50 mL LB, and cultures were grown overnight at 37 °C. The next morning, 10 mL of overnight culture was used to inoculate 1L LB. A total of 4 flasks with 1L LB each were inoculated with 10 mL of the overnight culture, and bacterial cultures were grown at 37 °C until they reached OD600 ~ 0.6. The cultures were chilled on ice for 30 min and then 0.25 mM of IPTG was added to each culture. The cultures were then moved back to a shaker set to 18 °C and incubated overnight. Cells were harvested and resuspended in 200 mL buffer containing 25 mM Tris-HCl pH 8.0, 150 mM NaCl, 1 mM EDTA and 0.5 mg/mL lysozyme. The cell suspension was sonicated, and cell debris was removed by centrifugation. The soluble fraction was passed through glutathione resin by gravity. The resin was washed with 75 mL of lysis buffer without lysozyme. The GST-proGhrelin8His protein was eluted with lysis buffer without lysozyme, supplemented with 15 mM reduced glutathione, GSH. About 50 mg of target protein, as evaluated by SDS-PAGE, was eluted. The eluate was supplemented with 1 mM DTT and about 7.5 mg of recombinant GST-TEV protease (see below) was added. The solution was incubated at 16 °C overnight to allow complete release of proghrelin8His from GST. Prior to Ni-NTA chromatography, 5 mM CaCl2 was added, and the solution was spun down at 4000× g for 10 min. After elution from Ni-NTA resin, protein solution was dialyzed against buffer containing 10 mM Tris-HCl pH 8.5, 50 mM NaCl, 10% glycerol and 0.01% CHAPS using 3 kDa cutoff membrane with 3 buffer exchanges. The protein was quantified by absorbance at A280 and qualified by SDS-PAGE.
The baculovirus expression of mouse GOAT. DH10Bac E. coli strain (ThermoFisher, Waltham, MA, USA) was transformed with pFastBac1-mouseGOAT plasmid, and Bacmid DNA from 12 white colonies was analyzed by DNA sequencing and PCR reaction. All clones were transfected to sf9 cells and level of mGOAT expression was compared between clones from cells producing P2. The clone with the highest mGOAT expression level was used to produce P3. For membrane isolation, sf9 cells were seeded at 2–4 × 10^6 /mL in total 1 L volume of sf-900 serum-free medium (ThermoFisher) and infected with P3 virus. At day 2 post-infection, cells were harvested and resuspended in 40 mL of buffer containing 50 mM NaPi pH 7.2, 150 mM NaCl, 1 mM EDTA, 100 μM bis (4-nitrophenyl) phosphate, 2.5 μg/mL aprotinin, 10 μg/mL leupeptin, 10 μg/mL pepstatin A. Cell suspension was briefly sonicated and cell debris was removed by centrifugation at 3000× g for 10 min. Membrane fraction was collected from supernatant by centrifugation at 100,000× g for 1 h. Membrane pellet was resuspended in storage buffer (50 mM NaPi pH 7.2, 150 mM NaCl and 10% glycerol) and kept at −80 °C. Acyltransferase assay: The assay conditions included per 50 μL reaction: 50 μg of total sf9 membranes, various (for modality experiment) or fixed (for IC50) concentrations of recombinant proghrelin8His peptide and various concentrations of tested compound (for IC50), 100 μM palmitoyl CoA, 50 mM HEPES pH 7.0 and 1 μM [^3H] octanoyl CoA (~5.5 dpm/fmol—American Radioactive Chemicals). After incubation of the reaction mixture at 37C for 10 min, tubes were placed on ice and 10 μL of 1M HCl was added to each tube. Following the addition of 740 μL of cold quench buffer (50 mM NaPi pH 7.4, 10 mM Imidazole, 150 mM NaCl, 100 μM bis (4-nitrophenyl) phosphate, 1 mM phenylmethylsulfonyl fluoride and 0.1% Triton), 0.2 mL of 50% Ni-NTA slurry was added to each reaction. […]

[3] = Pharmacokinetics in mice; type: in vivo
[4] = sf9 membranes containing mouse GOAT, [3H]octanoyl CoA, proghrelin8His

Compound | GOAT inhibition in vitro (in words) [2] | IC50 [2, 4] | also measured
1: GOAT reaction product, acyl ghrelin, 28-residue lipopeptide octanoylated at Ser3 (GSS(Octanoyl)FLSPEHQRVQQRKESKKPPAKLQPR; UniProt Q9UBU3 24-51, looked up) [compound 1] |  |  | GOAT inhibition (in words) [1]: weakly inhibited
CCCCCCCC(=O)NC[C@H](NC(=O)[C@@H](NC(=O)CNC)C(C)(C)C)C(N)=O [compound 12] (H-[Sar]-[Tle]-[Dap](Octanoyl)-NH2) | inactive | > 1 µM | 
O=C(O)c1ccc2oc(SCc3ccc(Cl)cc3Cl)nc2c1 [compound 7] |  |  | mode of GOAT inhibition [1]: competed at the CoA site on GOAT
CCCCOCC(=O)N1CCC(/C=C\c2c(C)nc3nonc3c2N)CC1 [compound 25, (Z)-1-(4-(2-(7-amino-5-methyl-[1,2,5]oxadiazolo[3,4-b]pyridin-6-yl)vinyl)piperidin-1-yl)-2-butoxyethan-1-one] | significantly impaired | 0.44 µM | 
N-(((3S,6S,9S)-9-(2-aminoacetamido)-3-benzyl-10,10-dimethyl-5,8-dioxo-1,11-dioxa-4,7-diazacyclopentadec-13-en-6-yl)methyl)octanamide [17a] |  |  | mode of GOAT inhibition ([2]; reaction rates at varied substrate concentrations, fixed inhibitor concentration): competing for the peptide substrate
CCCCCCCC(=O)NC[C@H](NC(=O)[C@@H](NC(=O)CNC)C(C)(C)C)C(=O)N[C@@H](Cc1ccccc1)C(N)=O [compound 8] (H-[Sar][Tle][Dap](Octanoyl)F-NH2) |  | 0.014 µM | 

The next lines start with results.

GOAT inhibition in vitro (in words) [2] | IC50 [2, 4] | Compound | also measured
 | 0.05 µM | CCCCCCCC(=O)NC[C@H](NC(=O)[C@@H](NC(=O)CNC)C(C)(C)C)C(=O)N[C@@H](Cc1ccccc1)C(=O)N[C@@H](CC(C)C)C(N)=O [compound 13] (H-[Sar][Tle][Dap](Octanoyl)FL-NH2) | oral bioavailability [3]: low; pharmacokinetics [3]: poor
 | 0.062 µM | CCCCCCCC(=O)NC[C@H](NC(=O)[C@@H](NC(=O)CNC)C(C)(C)C)C(=O)N[C@@H](Cc1ccccc1)C(=O)N[C@@H](CC(C)C)C(=O)N[C@@H](CO)C(N)=O [compound 14] (H-[Sar][Tle][Dap](Octanoyl)FLS-NH2) | 
 | 0.096 µM | CCCCCCCC(=O)NC[C@H](NC(=O)[C@@H](NC(=O)CNC)C(C)(C)C)C(=O)N[C@@H](Cc1ccccc1)C(=O)N[C@@H](CC(C)C)C(=O)N[C@@H](CO)C(=O)N1CCC[C@H]1C(N)=O [compound 15] (H-[Sar][Tle][Dap](Octanoyl)FLSP-NH2) | 
significantly impaired |  | C[C@H](NC(=O)c1ccnn1C)C(=O)N1CCC(CCCc2cc(N)c3nonc3n2)CC1 [compound 35, (S)-N-(1-(4-(3-(7-amino-[1,2,5]oxadiazolo[3,4-b]pyridin-5-yl)propyl)pip-eridin-1-yl)-1-oxopropan-2-yl)-1-methyl-1H-pyrazole-5-carboxamide] | IC50 (GOAT, membrane fraction, in-house) [2, 4]: inactive
